According to PMC10449633 (Nature Chemical Biology, 2023):
pIC50: −log10 of the molar value. Values joined by “and” are separate entries in the source; they are usually repeats but may differ in a detail not shown here. Identical values can stand only once. Like-named read-outs stand apart in the source and are kept apart here. Numbered stars: 1 amine (or outer) side, 2 acyl side, 3 side chain; on linkers, the order of the positions; unused ones are H or OH. Square brackets hold non-standard residues; d marks the D form. Peptide text beside a SMILES is read from it. ξ: configuration not given here. X1 = CN(C(Cc1cn(Cc2ccc(Br)cc2)c2ccccc12)C(=O)[*:2])[*:1]; ξAla(CF3) = NC(CC(F)(F)F)C(=O)O; X2 = N#CCCC(O[*:1])C(=O)[*:2]; NMeL = CN[CH](CC(C)C)C(=O)O; NMeA = CN[CH](C)C(=O)O

Legend:
WT Sec61α = target: T1, WT Sec61α (Canis lupus familiaris, UniProt P38377); assay: GLuc secretion reporter fused to full-length IL-2 or TNF, cells stably expressing WT Sec61α; format: cell-based, canine; details: for Sec61 WT - Hu IL2(FL) / Sec61 WT - Hu PD1(ss) / Sec61 WT - Hu TNFa(FL): replicate columns
T1 construct: expressed in transfected cells

Sec61 = target: T2, Sec61 (Homo sapiens, UniProt P61619); assay: cell-based; format: cell-based; details: for remaining activity at 0.000660151 µM: Drug nM (log10) 0.660151; for remaining activity at 0.00050805 µM: Drug nM (log10) -0.29409
T2 construct: endogenous in cells

Sec61α (HEK 293 FRT) = target: T3, Sec61α (HEK 293 FRT) (Homo sapiens, UniProt P61619); assay: Luciferase reporter assay in parental HEK 293 FRT cells; format: cell-based; details: HEK293, 24 h
T3 construct: host or cells: HEK293 Flp-In T-REx (parental, 'HEK 293 FRT')
Description: All mutants were sequence verified.

Sec61α = assay: Photo-cotransin (CT7) photo-affinity labeling competition, LMNG-solubilized ER microsomes; format: binding, sheep; details: excess competitor, LMNG-solubilized ER membranes
Description: To understand the molecular basis of Sec61 inhibition by KZR-8445, we pursued structural investigations using single-particle cryo-EM. Our initial attempts to isolate cotransin-bound ribosome–Sec61 complexes with the commonly used detergent digitonin were not successful. Several other detergents were screened for retention of native-like cotransin binding by subjecting solubilized Sec61 to a cotransin photo-affinity labeling assay[15] (Extended Data Fig. 2a). This screen identified lauryl maltoside neopentyl glycol (LMNG), a lipid-mimetic detergent that permits maximal photo-cotransin binding, as indicated by specific crosslinking to the Sec61α subunit in LMNG-solubilized ER membranes.
Sheep pancreatic ER microsomes (SRM) were isolated according to the method described earlier[48],[49]. […] The labeled proteins were analyzed by SDS–PAGE and in-gel fluorescence followed by Western blotting using anti-Sec61α and anti-RPL18 antibodies. […]
Extended Data Fig. 2 Isolation and biochemical characterization of the inhibitor-bound ribosome-Sec61 (RNC) complexes. […] (c) Gel filtration profile of clarified detergent-solubilized sample fractions with measured absorbance at A260. […]

Sec61α R66I = Sec61α R66I (Canis lupus familiaris, UniProt P38377, R66I); assay: Luciferase reporter assay in HEK293 cells expressing Sec61α R66I; design: remaining activity: dose or concentration left out as unconfirmed
Description: (§1) Data are mean values ± s.d. from n = 2 independent experiments.
(§2) HEK293T cells (0.3 × 10^6) were seeded per well of a six-well plate and incubated at 37 °C in 5% CO2 for 24 h to adhere. Each of the two wells was transfected with 1 µg of plasmid encoding a luciferase with the signal peptide of either VCAM1 or pPL using PEI in a 5:1 ratio, after which cells were returned to the incubator for a further 24 h. Transfected cells were then resuspended following trypsinization, cell count estimated using a TC20 Automated Cell Counter (BioRad) and diluted to seed a 96-well flat-bottom plate with 1.6 × 10^4 cells per well. […] Cells were then incubated for a further 24 h, after which the luciferase-containing media were transferred to a clean 96-well plate and stored at −20 °C. Luciferase activity of the media was estimated using a Gaussia-GLOW Juice Luciferase Assay kit from PJK Biotech GmbH as per the manufacturer’s instructions. Luminescence was measured using an EnSpire Multimode plate reader (PerkinElmer). Background luminescence from media placed in a well with neither cells nor drug was subtracted from all values, and measurements were calculated as a percentage of luminescence intensity of a well expressing the appropriate luciferase construct in the absence of any drug. Curves were fitted, and IC50 values were calculated using GraphPad Prism 8.
(§3) WT canine Sec61 was cloned into pcDNA5/FRT/TO (Thermo Fisher Scientific), and point mutations were generated using PCR. All mutants were sequence verified. HEK293 Flp-In T-REx cells (Thermo Fisher Scientific, R78007) were cultured in Dulbecco’s modified Eagle’s medium (Gibco) supplemented with 10% FBS (Gibco) at 37 °C in a humidified 5% CO2 atmosphere. Approximately 0.3 µg of pOG44 and 1 µg of targeting construct plasmids were mixed in 250 µl of OptiMEM (Thermo Fisher Scientific, 51985-026). A total of 3 µl (3 µg) Lipofectamine3000 transfection reagent was then added to the DNA mix and incubated at room temperature for 20 min, and the whole mixture was added to the cells. Cells were exposed to 100 µg ml^−^1 hygromycin B (Invitrogen) and 10 µg ml^−^1 blasticidin for 3–4 weeks until the appearance of resistant colonies. Colonies were expanded into T75 flasks and induced with doxycycline (Sigma-Aldrich, D9891) at a concentration of 1–5 µg ml^−^1 for 48 h. Cells were collected, and total RNA was extracted followed by cDNA amplification and sequencing of Sec61 with gene-specific PCR primers to confirm. Cells were then used for the luciferase reporter assays as above.
(§4) Data are mean values ± SD and are representative of n = 2 independent experiments.

Sec61α N300A = Sec61α N300A (Canis lupus familiaris, UniProt P38377, N300A); assay: Luciferase reporter assay in HEK293 cells expressing Sec61α N300A; design: remaining activity: dose or concentration left out as unconfirmed
Description: as §1, §2, §3, §4

[1] = HEK-293T, 24 h, VCAM signal peptide, read-out: secreted luciferase activity (% of no-drug control)
[2] = HEK-293T, 24 h, pPL signal peptide, read-out: secreted luciferase activity (% of no-drug control)

T2 sequence (P61619 whole entry): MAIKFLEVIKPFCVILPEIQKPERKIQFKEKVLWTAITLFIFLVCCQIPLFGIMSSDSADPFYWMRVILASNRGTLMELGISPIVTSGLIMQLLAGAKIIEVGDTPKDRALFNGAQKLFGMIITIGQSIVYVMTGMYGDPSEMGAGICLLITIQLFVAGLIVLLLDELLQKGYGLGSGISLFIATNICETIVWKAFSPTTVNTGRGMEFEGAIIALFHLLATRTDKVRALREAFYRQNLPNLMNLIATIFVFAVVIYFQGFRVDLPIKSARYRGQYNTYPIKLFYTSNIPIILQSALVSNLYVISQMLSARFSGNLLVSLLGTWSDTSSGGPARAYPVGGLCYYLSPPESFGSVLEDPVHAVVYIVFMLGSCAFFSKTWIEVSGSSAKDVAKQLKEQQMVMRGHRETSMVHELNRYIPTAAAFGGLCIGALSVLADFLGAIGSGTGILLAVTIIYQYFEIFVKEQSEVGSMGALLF
T2 sequence (P60059 whole entry, further chain): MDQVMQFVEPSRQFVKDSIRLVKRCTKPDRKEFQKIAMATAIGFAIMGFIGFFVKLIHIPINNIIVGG
T2 sequence (P60468 whole entry, further chain): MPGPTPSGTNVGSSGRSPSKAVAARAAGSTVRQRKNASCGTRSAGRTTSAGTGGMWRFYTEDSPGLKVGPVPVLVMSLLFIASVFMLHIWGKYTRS
Sequence of Sec61α R66I (P38377 whole entry R66I): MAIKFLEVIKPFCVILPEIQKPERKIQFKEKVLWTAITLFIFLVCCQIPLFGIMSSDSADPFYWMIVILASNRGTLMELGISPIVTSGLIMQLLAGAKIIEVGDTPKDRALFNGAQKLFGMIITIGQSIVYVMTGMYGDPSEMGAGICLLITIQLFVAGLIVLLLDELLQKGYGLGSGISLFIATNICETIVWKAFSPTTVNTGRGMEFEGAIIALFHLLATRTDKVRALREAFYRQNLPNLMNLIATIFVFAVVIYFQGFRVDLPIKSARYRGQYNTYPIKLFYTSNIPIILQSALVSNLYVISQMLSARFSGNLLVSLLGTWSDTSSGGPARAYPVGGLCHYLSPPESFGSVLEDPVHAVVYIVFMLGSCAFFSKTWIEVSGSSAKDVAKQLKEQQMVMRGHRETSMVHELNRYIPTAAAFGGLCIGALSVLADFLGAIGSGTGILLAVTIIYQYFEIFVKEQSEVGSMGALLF
Sequence of Sec61α R66I (P60059 whole entry, further chain): as the sequence (P60059 whole entry, further chain) above
Sequence of Sec61α R66I (P60468 whole entry, further chain): as the sequence (P60468 whole entry, further chain) above
Sequence of Sec61α N300A (P60468 whole entry): as the sequence (P60468 whole entry, further chain) above
Sequence of Sec61α N300A (P60059 whole entry, further chain): as the sequence (P60059 whole entry, further chain) above
Sequence of Sec61α N300A (P38377 whole entry N300A): as the sequence (P38377 whole entry R66I) above, with I66R, N300A counted along it
T3 sequence (P60468 whole entry): as the sequence (P60468 whole entry, further chain) above
T3 sequence (P60059 whole entry, further chain): as the sequence (P60059 whole entry, further chain) above
T3 sequence (P61619 whole entry): as the sequence (P61619 whole entry) above
T1 sequence (P60468 whole entry, the tested form may be a part): as the sequence (P60468 whole entry, further chain) above
T1 sequence (P38377 whole entry, the tested form may be a part): as the sequence (P38377 whole entry R66I) above, with I66R counted along it
T1 sequence (P60059 whole entry, further chain, the tested form may be a part): as the sequence (P60059 whole entry, further chain) above

CC(C)CC1NC(=O)C(Cc2cn(Cc3ccc(Br)cc3)c3ccccc23)N(C)C(=O)C(CC(F)(F)F)NC(=O)C(CC(C)C)N(C)C(=O)C(CC(F)(F)F)NC(=O)C(CCC#N)OC(=O)C(C)N(C)C1=O (stereo not shown) [KZR-8445] (cyclo([X1]L[NMeA][X2][ξAla(CF3)][NMeL][ξAla(CF3)]); configuration not given here)
Sec61 WT - Hu IL2(FL) (WT Sec61α; 0.32 nM): 112 and 115 and 119 | Sec61 WT - Hu PD1(ss) (WT Sec61α; 0.32 nM): 120 and 121 and 116 | Sec61 WT - Hu TNFa(FL) (WT Sec61α; 0.32 nM): 132 and 105 and 123 | Sec61 WT - Hu IL2(FL) (WT Sec61α; 1.6 nM): 108 and 112 and 116 | Sec61 WT - Hu PD1(ss) (WT Sec61α; 1.6 nM): 107 and 115 and 113 | Sec61 WT - Hu TNFa(FL) (WT Sec61α; 1.6 nM): 119 and 96 and 85 | Sec61 WT - Hu IL2(FL) (WT Sec61α; 8 nM): 105 and 102 and 116 | Sec61 WT - Hu PD1(ss) (WT Sec61α; 8 nM): 91 and 108 and 92 | Sec61 WT - Hu TNFa(FL) (WT Sec61α; 8 nM): 123 and 114 and 93 | Sec61 WT - Hu IL2(FL) (WT Sec61α; 40 nM): 89 and 83 and 75 | Sec61 WT - Hu PD1(ss) (WT Sec61α; 40 nM): 62 and 54 and 56 | Sec61 WT - Hu TNFa(FL) (WT Sec61α; 40 nM): 81 and 75 and 70 | Sec61 WT - Hu IL2(FL) (WT Sec61α; 200 nM): 57 and 37 and 42 | Sec61 WT - Hu PD1(ss) (WT Sec61α; 200 nM): 18 (2×) and 19 | Sec61 WT - Hu TNFa(FL) (WT Sec61α; 200 nM): 36 and 30 and 29 | Sec61 WT - Hu IL2(FL) (WT Sec61α; 1000 nM): 7 and 6 (2×) | Sec61 WT - Hu PD1(ss) (WT Sec61α; 1000 nM): 2 | Sec61 WT - Hu TNFa(FL) (WT Sec61α; 1000 nM): 3 (2×) and 2 | Sec61 WT - Hu IL2(FL) (WT Sec61α; 5000 nM): 1 and 0 (2×) | Sec61 WT - Hu PD1(ss) (WT Sec61α; 5000 nM): 0 | Sec61 WT - Hu TNFa(FL) (WT Sec61α; 5000 nM): 1 and 0 (2×) | Sec61 WT - Hu IL2(FL) (WT Sec61α; 25000 nM): 0 | Sec61 WT - Hu PD1(ss) (WT Sec61α; 25000 nM): 0 (2×) and -1 | Sec61 WT - Hu TNFa(FL) (WT Sec61α; 25000 nM): 1 and 0 (2×) | pIC50 (WT Sec61α; 24 h, doxycycline-induced): ~7.00 | potency against VCAM-GLuc relative to pPL-GLuc (Sec61; HEK293T, 24 h): 20 fold | remaining activity at 0.000660151 µM (Sec61; [1]): 84% | remaining activity at 0.00050805 µM (Sec61; [1]): 92.6% | remaining activity at 0.000660151 µM (Sec61; [2]): 93.6% | remaining activity at 0.004 µM (Sec61; HEK-293T, 24 h, pPL signal peptide, Drug nM (log10) 4, read-out: secreted luciferase activity (% of no-drug control)): 14% | remaining activity at 0.00050805 µM (Sec61; [2]): 97.9% | pIC50 (Sec61; read-out: IC50, prolactin signal peptide in SP-GLuc secretion assay): ~6.00 | remaining activity at 0.00152 µM (Sec61α (HEK 293 FRT); Drug nM (log10) 0.18303, read-out: luciferase reporter activity (% of no-drug control)): 88.7% | remaining activity at 0.00457 µM (Sec61α (HEK 293 FRT); Drug nM (log10) 0.660151, read-out: luciferase reporter activity (% of no-drug control)): 75.3% | remaining activity at 0.04115 µM (Sec61α (HEK 293 FRT); Drug nM (log10) 1.61439, read-out: luciferase reporter activity (% of no-drug control)): 27% | remaining activity at 0.1235 µM (Sec61α (HEK 293 FRT); Drug nM (log10) 2.09151, read-out: luciferase reporter activity (% of no-drug control)): 12.8% | remaining activity at 0.37 µM (Sec61α (HEK 293 FRT); Drug nM (log10) 2.56864, read-out: luciferase reporter activity (% of no-drug control)): 4.89% | remaining activity at 1.111 µM (Sec61α (HEK 293 FRT); Drug nM (log10) 3.04576, read-out: luciferase reporter activity (% of no-drug control)): 2.41% | remaining activity at 3.33 µM (Sec61α (HEK 293 FRT); Drug nM (log10) 3.52288, read-out: luciferase reporter activity (% of no-drug control)): 2.03% | remaining activity at 10 µM (Sec61α (HEK 293 FRT); Drug nM (log10) 4, read-out: luciferase reporter activity (% of no-drug control)): 2.36% | remaining activity at 0.00050805 µM (Sec61α (HEK 293 FRT); Drug nM (log10) -0.29409, read-out: luciferase reporter activity (% of no-drug control)): 92.4% | competition of photo-cotransin crosslinking to Sec61α (Sec61α): efficiently competed | remaining activity at 0.00018303 µM (Sec61α R66I; HEK293, 24 h, read-out: luciferase reporter activity (% of no-drug control), R66I, Drug nM (log10) 0.18303): 90.3% | remaining activity at 0.000660151 µM (Sec61α R66I; HEK293, 24 h, read-out: luciferase reporter activity (% of no-drug control), R66I, Drug nM (log10) 0.660151): 85.2% | remaining activity at 0.00113727 µM (Sec61α R66I; HEK293, 24 h, read-out: luciferase reporter activity (% of no-drug control), R66I, Drug nM (log10) 1.13727): 74.3% | remaining activity (Sec61α R66I; HEK293, 24 h, read-out: luciferase reporter activity (% of no-drug control), R66I, Drug nM (log10) 1.61439): 58.4% | remaining activity (Sec61α R66I; HEK293, 24 h, read-out: luciferase reporter activity (% of no-drug control), R66I, Drug nM (log10) 2.09151): 48.6% | remaining activity (Sec61α R66I; HEK293, 24 h, read-out: luciferase reporter activity (% of no-drug control), R66I, Drug nM (log10) 2.56864): 41.2% | remaining activity (Sec61α R66I; HEK293, 24 h, read-out: luciferase reporter activity (% of no-drug control), R66I, Drug nM (log10) 3.04576): 39.3% | remaining activity (Sec61α R66I; HEK293, 24 h, read-out: luciferase reporter activity (% of no-drug control), R66I, Drug nM (log10) 3.52288): 35.2% | remaining activity at 0.004 µM (Sec61α R66I; HEK293, 24 h, read-out: luciferase reporter activity (% of no-drug control), R66I, Drug nM (log10) 4): 39% | remaining activity at 0.00050805 µM (Sec61α R66I; HEK293, 24 h, read-out: luciferase reporter activity (% of no-drug control), R66I, Drug nM (log10) -0.29409): 90% | effect of R66I mutation on sensitivity in secreted GLuc assay (Sec61α R66I; HEK293 cells): conferred resistance | remaining activity at 0.00018303 µM (Sec61α N300A; HEK293, 24 h, read-out: luciferase reporter activity (% of no-drug control), N300A, Drug nM (log10) 0.18303): 95.9% | remaining activity at 0.000660151 µM (Sec61α N300A; HEK293, 24 h, read-out: luciferase reporter activity (% of no-drug control), N300A, Drug nM (log10) 0.660151): 88.9% | remaining activity at 0.00113727 µM (Sec61α N300A; HEK293, 24 h, read-out: luciferase reporter activity (% of no-drug control), N300A, Drug nM (log10) 1.13727): 80.9% | remaining activity (Sec61α N300A; HEK293, 24 h, read-out: luciferase reporter activity (% of no-drug control), N300A, Drug nM (log10) 1.61439): 74.8% | remaining activity (Sec61α N300A; HEK293, 24 h, read-out: luciferase reporter activity (% of no-drug control), N300A, Drug nM (log10) 2.09151): 69.1% | remaining activity (Sec61α N300A; HEK293, 24 h, read-out: luciferase reporter activity (% of no-drug control), N300A, Drug nM (log10) 2.56864): 69.9% | remaining activity (Sec61α N300A; HEK293, 24 h, read-out: luciferase reporter activity (% of no-drug control), N300A, Drug nM (log10) 3.04576): 64% | remaining activity (Sec61α N300A; HEK293, 24 h, read-out: luciferase reporter activity (% of no-drug control), N300A, Drug nM (log10) 3.52288): 62% | remaining activity at 0.004 µM (Sec61α N300A; HEK293, 24 h, read-out: luciferase reporter activity (% of no-drug control), N300A, Drug nM (log10) 4): 67.2% | remaining activity at 0.000508 µM (Sec61α N300A; HEK293, 24 h, read-out: luciferase reporter activity (% of no-drug control), N300A, Drug nM (log10) -0.29409): 96.5% | effect of N300A Sec61α expression on sensitivity in secreted GLuc assay (Sec61α N300A; HEK293 cells): conferred resistance
